Reference: ChEMBL document CHEMBL3885881, “DrugMatrix”

Species on record: Rattus norvegicus
Experiment: DrugMatrix - Regimen: Daily Repeat
Type: toxicity, organism-based, Sprague-Dawley
Set-up: regimen Daily Repeat, gender Male, age 6-8 weeks
Conditions: in vivo, sc, route subcutaneous, […]; for ABSOLUTE BASOPHIL / ABSOLUTE EOSINOPHIL / ABSOLUTE LYMPHOCYTE / ABSOLUTE MONOCYTE / BASOPHIL / EOSINOPHIL / ERYTHROCYTE COUNT / HEMATOCRIT / HEMOGLOBIN / LEUKOCYTE COUNT / LYMPHOCYTE / MEAN CORPUSCULAR HEMOGLOBIN / MEAN CORPUSCULAR HEMOGLOBIN CONCENTRATION / MEAN CORPUSCULAR VOLUME / MONOCYTE / NEUTROPHIL / NUCLEATED RED BLOOD CELLS / PLATELET COUNT: tissue Blood; for ALANINE AMINOTRANSFERASE / ALBUMIN / ASPARTATE AMINOTRANSFERASE / BLOOD UREA NITROGEN / CARBON DIOXIDE / CHLORIDE / CHOLESTEROL / CREATINE PHOSPHOKINASE / CREATININE / LACTATE DEHYDROGENASE / LIPASE / PHOSPHORUS / POTASSIUM / SODIUM / TOTAL BILIRUBIN / TOTAL PROTEIN / URIC ACID / GLUCOSE: tissue Plasma
[1] = 0 mg/kg, 72 h, dose level Control, time 3 day
[2] = 0 mg/kg, 120 h, dose level Control, time 5 day
[3] = 64 mg/kg, 72 h, dose level Low, time 3 day

**Q.** Which results are given for `Nc1ccc(S(N)(=O)=O)cc1` [SULFANILAMIDE]?
**A.** ABSOLUTE BASOPHIL [1]: 0 CELLS/uL; ABSOLUTE EOSINOPHIL [1]: 92.33 CELLS/uL; ABSOLUTE LYMPHOCYTE [1]: 12247.5 CELLS/uL; ABSOLUTE MONOCYTE [1]: 389.67 CELLS/uL; BASOPHIL [1]: 0%; EOSINOPHIL [1]: 0.67%; ERYTHROCYTE COUNT [1]: 5.45 x10E6/uL; HEMATOCRIT [1]: 34.85%; HEMOGLOBIN [1]: 12.97 G/DL; LEUKOCYTE COUNT [1]: 14.05 x10E3/uL; LYMPHOCYTE [1]: 87.33%; MEAN CORPUSCULAR HEMOGLOBIN [1]: 23.78 pg; MEAN CORPUSCULAR HEMOGLOBIN CONCENTRATION [1]: 37.22 G/DL; MEAN CORPUSCULAR VOLUME [1]: 63.93 fL; MONOCYTE [1]: 2.67%; NEUTROPHIL [1]: 9.33%; NUCLEATED RED BLOOD CELLS [1]: 0 /100WBC; PLATELET COUNT [1]: 1174 x10E3/uL; ALANINE AMINOTRANSFERASE [1]: 48.83 u/L; ALBUMIN [1]: 4.23 G/DL; ASPARTATE AMINOTRANSFERASE [1]: 90 u/L; BLOOD UREA NITROGEN [1]: 15.33 mg/dL; CARBON DIOXIDE [1]: 23 mmol/L; CHLORIDE [1]: 103.5 MEQ/L; CHOLESTEROL [1]: 70.5 mg/dL; CREATINE PHOSPHOKINASE [1]: 651.83 u/L; CREATININE [1]: 0.22 mg/dL; LACTATE DEHYDROGENASE [1]: 165 u/L; LIPASE [1]: 9.33 u/L; PHOSPHORUS [1]: 12.03 mg/dL; POTASSIUM [1]: 6.17 MEQ/L; SODIUM [1]: 142.62 MEQ/L; TOTAL BILIRUBIN [1]: 0.2 mg/dL; TOTAL PROTEIN [1]: 5.73 G/DL; URIC ACID [1]: 1.77 mg/dL; ABSOLUTE BASOPHIL [2]: 0 CELLS/uL; ABSOLUTE EOSINOPHIL [2]: 0 CELLS/uL; ABSOLUTE LYMPHOCYTE [2]: 12736.67 CELLS/uL; ABSOLUTE MONOCYTE [2]: 253.5 CELLS/uL; BASOPHIL [2]: 0%; EOSINOPHIL [2]: 0%; ERYTHROCYTE COUNT [2]: 5.72 x10E6/uL; HEMATOCRIT [2]: 36.05%; HEMOGLOBIN [2]: 13.62 G/DL; LEUKOCYTE COUNT [2]: 14.18 x10E3/uL; LYMPHOCYTE [2]: 89.33%; MEAN CORPUSCULAR HEMOGLOBIN [2]: 23.83 pg; MEAN CORPUSCULAR HEMOGLOBIN CONCENTRATION [2]: 37.8 G/DL; MEAN CORPUSCULAR VOLUME [2]: 63.05 fL; MONOCYTE [2]: 1.83%; NEUTROPHIL [2]: 8.83%; NUCLEATED RED BLOOD CELLS [2]: 0 /100WBC; PLATELET COUNT [2]: 1322.17 x10E3/uL; ALANINE AMINOTRANSFERASE [2]: 48.83 u/L; ALBUMIN [2]: 4.27 G/DL; ASPARTATE AMINOTRANSFERASE [2]: 75.83 u/L; BLOOD UREA NITROGEN [2]: 15.5 mg/dL; CARBON DIOXIDE [2]: 30.5 mmol/L; CHLORIDE [2]: 102.33 MEQ/L; CHOLESTEROL [2]: 76.17 mg/dL; CREATINE PHOSPHOKINASE [2]: 205.5 u/L; CREATININE [2]: 0.2 mg/dL; GLUCOSE [2]: 149.67 mg/dL; LACTATE DEHYDROGENASE [2]: 124.5 u/L; LIPASE [2]: 10 u/L; PHOSPHORUS [2]: 10.93 mg/dL; POTASSIUM [2]: 6.59 MEQ/L; SODIUM [2]: 143.1 MEQ/L; TOTAL BILIRUBIN [2]: 0.2 mg/dL; TOTAL PROTEIN [2]: 6.05 G/DL; URIC ACID [2]: 1.45 mg/dL; ABSOLUTE BASOPHIL [3]: 0 CELLS/uL; ABSOLUTE EOSINOPHIL [3]: 0 CELLS/uL; ABSOLUTE LYMPHOCYTE [3]: 13215.67 CELLS/uL; ABSOLUTE MONOCYTE [3]: 191 CELLS/uL; BASOPHIL [3]: 0%; EOSINOPHIL [3]: 0%; ERYTHROCYTE COUNT [3]: 5.71 x10E6/uL; HEMATOCRIT [3]: 36.53%; HEMOGLOBIN [3]: 13.5 G/DL; LEUKOCYTE COUNT [3]: 14.17 x10E3/uL; LYMPHOCYTE [3]: 93.33%; MEAN CORPUSCULAR HEMOGLOBIN [3]: 23.67 pg; MEAN CORPUSCULAR HEMOGLOBIN CONCENTRATION [3]: 36.97 G/DL; MEAN CORPUSCULAR VOLUME [3]: 64.03 fL; MONOCYTE [3]: 1.33%; NEUTROPHIL [3]: 5.33%; NUCLEATED RED BLOOD CELLS [3]: 0 /100WBC; PLATELET COUNT [3]: 1225.33 x10E3/uL; ALANINE AMINOTRANSFERASE [3]: 53 u/L; ALBUMIN [3]: 4.13 G/DL; ASPARTATE AMINOTRANSFERASE [3]: 87 u/L; BLOOD UREA NITROGEN [3]: 16.33 mg/dL; CARBON DIOXIDE [3]: 25.33 mmol/L; CHLORIDE [3]: 103 MEQ/L; CHOLESTEROL [3]: 70.33 mg/dL; CREATINE PHOSPHOKINASE [3]: 269 u/L; CREATININE [3]: 0.24 mg/dL; GLUCOSE [3]: 150.67 mg/dL; LACTATE DEHYDROGENASE [3]: 408.33 u/L; LIPASE [3]: 10 u/L; PHOSPHORUS [3]: 13.03 mg/dL; POTASSIUM [3]: 6.94 MEQ/L; SODIUM [3]: 144.53 MEQ/L; TOTAL BILIRUBIN [3]: 0.27 mg/dL; TOTAL PROTEIN [3]: 5.7 G/DL; URIC ACID [3]: 1.7 mg/dL
